# Laboratory results reported in paper PMC11477209, “Toxicological Evaluation of Kaempferol and Linearolactone as Treatments for Amoebic Liver Abscess Development in Mesocricetus auratus” (International Journal of Molecular Sciences, 2024).
# Experiments:
# CHO-K1 cells = experiment: MTT cytotoxicity assay; format: cell-based, Chinese hamster
# BEAS-2B cells = experiment: MTT cytotoxicity assay; format: cell-based, human; settings: 24 h
# [1] = test system: E. histolytica trophozoites; experiment: Cell morphology by confocal microscopy (actin); format: cell-based, Entamoeba histolytica; settings: phalloidin-rhodamine, treatment with IC50
# Procedure: Then, the culture medium was removed, and the adhered cells were fixed with 4% paraformaldehyde for 1 h at 37 °C. The samples were washed three times with 1× PBS and incubated with 1:50 phalloidin–rhodamine (R415, Invitrogen; Carlsbad, CA, USA) for 1 h at 37 °C. Finally, the cells were washed, mounted with VectaShield/DAPI medium (Vector Laboratories; Newark, CA, USA), and observed with a confocal microscope (LSM-700, Zeiss; Oberkochen, Germany).
# [2] = test system: E. histolytica trophozoites (amoebic liver abscess); experiment: Amoebic liver abscess (ALA) model, antiparasitic protocol; format: in vivo, Mesocricetus auratus
# Description: M. auratus was used as an animal model because the hamster is naturally susceptible to infection by E. histolytica and can develop amoebic colitis or extraintestinal complications such as an ALA [71]. In this context, the hamster can be used to search for new alternative therapeutic agents against amoebiasis. The hamsters were acquired from Charles River Laboratories Inc. (Wilmington, MA, USA) in 2017 by Centro de Investigación y de Estudios Avanzados del Instituto Politécnico Nacional ([…]-IPN). […] Male hamsters (sexually mature and homozygous) weighing 95 ± 5 g and ≈10 weeks old were selected for the experiments. They were maintained in aseptic conditions at 25 ± 1 °C, 50 ± 3% humidity, a 12 h photoperiod, and ad libitum access to a standard diet (LabDiet; Richmond, IN, USA) and water (Figure 5A). The hamsters were housed in polycarbonate boxes (five per box), with an American Iron and Steel Institute (AISI) lid and wood shavings as bedding, in a controlled room of the Animal Production and Experimentation Unit (UPEAL) from […]-IPN (Figure 5A). Additionally, the health state of the hamsters and their adaptation to the new laboratory conditions were evaluated for 15 days to decrease their stress and anxiety levels. This study was carried out according to the Official Mexican Regulations (NOM-062-ZOO-1999) and NC3Rs ARRIVE [60, 72]. The protocol was approved by the Institutional Animal Care and Use Committee (Reg. No. 0183-16). Finally, the hamsters were not subjected to any previous experimental procedure or any additional treatment before beginning the experimental procedures (see File S1, NC3Rs ARRIVE Guidelines Checklist). Compounds that are prohibited and/or not recommended for use in animals by the American Veterinary Medical Association (Guidelines for the Euthanasia of Animals) were not used.
# These experiments were performed with three independent biological replicates. For each replicate, twenty-five hamsters were randomly distributed (simple type) into five experimental groups (five animals per group). The sample size was determined based on the Organization for Economic Cooperation and Development (OECD) recommendations that establish the minimum number of individuals required for the tests so as not to sacrifice animals unnecessarily. Laparotomy was performed in aseptic conditions by using depilation, iodine solution, as well as sterile field cloths. Subsequently, an intra-hepatic puncture was made to deliver 1.5 × 10^6 virulent E. histolytica trophozoites in 100 μL of 1× PBS into the left hepatic lobe for ALA induction (Figure 5A-3). The injection site was immediately covered by applying a gel foam pad to maintain hemostasis. The abdominal layers were sutured discontinuously by single vertical stitches using Vicryl synthetic absorbable suture with a triangular pointed half circle needle. Irregular edges or folds in the surgical wound were eliminated to avoid tissue devitalization or possible infections. The development of a hepatic ALA was monitored for 4 days (Figure 5A-4).
# (Figure 5B). The compounds were administered by the i.p. route because the peritoneal cavity presents rapid fluid absorption into the bloodstream, and initial biotransformation by the gastrointestinal tract is avoided. […] The hamsters were evaluated 24 h post-treatment to detect any signs of discomfort/pain or toxicity. The humane endpoint criteria used in this study were >20% body weight loss overnight, cachexia, recumbence, lethargy, respiratory distress, inability to reach food and water, lack of grooming, and ulceration around the surgical site, among others. Additionally, the weight of hamsters was determined at the beginning and end of the experiment with an electronic bascule (CS200, Ohaus; Parsippany, NJ, USA), and the ALA volume was calculated based on imaging (Figure 5B-1). […]
# [3] = Paraclinical analysis (serum biochemistry, hematic biometry) in ALA hamsters; format: in vivo, Mesocricetus auratus
# Procedure: Serum was obtained by centrifugation at 3500 rpm and frozen at −70 °C until analysis. Hematic biometry was performed in a hematology autoanalyzer system (BC-2300, Mindray; Shenzhen, China), and biochemical parameters were made on an automatic medical system (Prestige 24i, Tokyo Boeki; Kanagawa, Japan).
# [4] = in vivo
# Procedure: After blood samples were obtained, the hamsters were sacrificed with a lethal dose of sodium pentobarbital, followed by a cervical fracture. They were mounted on a dissecting board for the necropsy. A complete mid-laparotomy was performed to remove the lungs, spleen, heart, liver, and kidneys. An excisional biopsy was performed to recover the ALA lesions for morphometric analysis. The organs and ALA lesions were rinsed with 1× PBS, weighed, and adherent tissue was removed. […] Later, the inclusion protocol was performed to obtain histological sections (3 μm thick) with a rotatory microtome (RM2125-RTS, Leica; Wetzlar, Germany). Tissue slices were stained with hematoxylin-eosin (Merck; Rahway, NJ, USA), mounted on coverslips with Entellan^TM-New (Merck; Rahway, NJ, USA), and observed with optical microscopy (Eclipse 80i, Nikon; Tokio, Japan).
# [5] = test system: E. histolytica trophozoites (virulent HM-1 strain); settings: 48 h
# [6] = test system: E. histolytica trophozoites; settings: 48 h; ref [10]; read-out: IC50 E. histolytica trophozoites; cited from earlier work
# [7] = test system: E. histolytica trophozoites (virulent HM-1 strain); experiment: microbe, parasite or virus in culture; settings: Entamoeba histolytica, 48 h, read-out: IC50 HM-1, 48 h, flow cytometry
# [8] = MTZ 0.16, KP 31.6, LL 15.6 μg/mL
smiles,measurement,setting,value
O=c1c(O)c(-c2ccc(O)cc2)oc2cc(O)cc(O)c12 [KP],biological activity symbol on IC50 CHO-K1,"CHO-K1 cells; 24 h, MTT",+/-
same,IC50,"CHO-K1 cells; Cricetulus griseus, CHO-K1, 24 h, read-out: IC50 CHO-K1",70 µg/mL
same,biological activity symbol on IC50 BEAS-2B,BEAS-2B cells,+/-
same,IC50,"BEAS-2B cells; Homo sapiens, BEAS-2B",100 µg/mL
same,actin cytoskeleton alteration,[1],disorganized actin microfilaments
same,Edges,[2]; ALA characteristics,Irregular and poorly defined
same,Leukocyte infiltrate,[2]; ALA characteristics,+/−
same,Liquid,[2]; ALA characteristics,+/−
same,Morphology,[2]; ALA characteristics,Ovoid
same,ALA Volume,"[2]; MRI, i.p. 4 days",738 ± 150 * mm^3
same,MRI T1 signal of ALA,[2]; T1,Intermediate intensity
same,MRI T2 signal of ALA,[2]; T2,hypointense
same,ALA Weight,"[2]; i.p. 4 days, KP 5, LL 10, MTZ 10 mg/kg/day",0.86 ± 0.15 g
same,Erythrocytes,"[3]; blood, ALA hamsters, i.p. 4 days",6.8 ± 0.3 x10 6/mm3
same,Band neutrophils,[3]; in vivo,2 ± 1%
same,Basophils,[3]; in vivo,0%
same,Eosinophils,[3]; in vivo,0%
same,Immature forms,[3]; in vivo,0%
same,Lymphocytes,[3]; in vivo,39 ± 12%
same,Monocytes,[3]; in vivo,0%
same,Segmented neutrophils,[3]; in vivo,60 ± 11%
same,ALT (GPT),"[3]; in vivo, ip",60 ± 10 U/L
same,Albumin,"[3]; in vivo, ip",1.7 ± 0.2 g/dL
same,Alkaline phosphatase,"[3]; in vivo, ip",349 ± 38 U/L
same,Cholesterol,"[3]; in vivo, ip",164 ± 43 mg/dL
same,Creatinine,"[3]; in vivo, ip",0.45 ± 0.1 mg/dL
same,Direct bilirubin,"[3]; in vivo, ip",0.37 ± 0.07 mg/dL
same,GGT,"[3]; in vivo, ip",9.3 ± 5.5 U/L
same,Glucose,"[3]; in vivo, ip",152 ± 11 mg/dL
same,Hematocrit,"[3]; in vivo, ip",48.8 ± 0.5%
same,Hemoglobin,"[3]; in vivo, ip",16.5 ± 0.2 g/dL
same,Indirect bilirubin,"[3]; in vivo, ip",0.01 ± 0.0 mg/dL
same,MCH,"[3]; in vivo, ip",24 ± 0.7 pg
same,MCHC,"[3]; in vivo, ip",33 ± 0.1 g/dL
same,MCV,"[3]; in vivo, ip",72 ± 2.3 fL
same,MPV,"[3]; in vivo, ip",7.25 ± 0.5 fL
same,PCT,"[3]; in vivo, ip",0.4 ± 0.2%
same,PDW,"[3]; in vivo, ip",9.15 ± 1.2 fL
same,Platelets,"[3]; in vivo, ip",537 ± 266 x106/μL
same,RDW-SD,"[3]; in vivo, ip",42.4 ± 0.3 fL
same,Total bilirubin,"[3]; in vivo, ip",0.38 ± 0.07 mg/dL
same,Total protein,"[3]; in vivo, ip",5.2 ± 0.2 g/dL
same,Triglycerides,"[3]; in vivo, ip",475 ± 28 mg/dL
same,Urea,"[3]; in vivo, ip",41.6 ± 4 mg/dL
same,leukocytes (mild leukocytosis),"[3]; in vivo, ip","14,800 ± 700 /mm^3"
same,Heart largest diameter,[4],1.06 ± 0.08 cm
same,Heart weight,[4],0.38 ± 0.1 g
same,Kidneys largest diameter,[4],1.2 ± 0.1 cm
same,Kidneys weight,[4],0.49 ± 0.04 g
same,Liver largest diameter,[4],3.88 ± 0.11 cm
same,Liver weight,[4],5.9 ± 0.8 g
same,Lungs largest diameter,[4],2.5 ± 0.05 cm
same,Lungs weight,[4],0.74 ± 0.06 g
same,Spleen largest diameter,[4],3.7 ± 0.1 cm
same,Spleen weight,[4],0.36 ± 0.05 g
same,biological activity symbol on IC50 HM-1,[5],+
same,apoptotic trophozoites,[5]; [8],8.2%
same,necrotic trophozoites,[5]; [8],45.2%
same,decrease of size and granularity of the cell population,"[5]; MTZ 0.16, KP 31.6, LL 15.6 μg/mL, vs Vh",55%
same,Survival rate,"ALA hamsters, i.p. 4 days",100%
same,Toxicity signs,"in vivo, ip",None
same,IC50,[6],27.7 µM
same,IC50,[7],31.6 µg/mL
